Assay results published in ChEMBL document CHEMBL1773024, “New 29-nor-cycloartanes with a 3,4-seco- and a novel 2,3-seco-structure from the leaves of Sinocalycanthus chinensis” (Bioorg Med Chem, 2011).
Converted amounts (≈) assume the structure as drawn.

Columns and labels:
KB = assay: Cytotoxicity against human KB cells after 48 hrs by MTT assay
K562 [1] = assay: Cytotoxicity against human doxorubicin-resistant K562 cells after 6 hrs by MTT assay; format: functional, cell-based; details: K562, 6 h
MCF7 = assay: Cytotoxicity against human MCF7 cells after 48 hrs by MTT assay; details: MCF7, 48 h
[2] = Cytotoxicity against human colchicine-resistant KB-C2 cells after 48 hrs by MTT assay; details: KB-C2, 48 h
K562 [3] = assay: Cytotoxicity against human K562 cells after 6 hrs by MTT assay; format: functional, cell-based; details: K562, 6 h
[4] = Cytotoxicity against human KB-C2 cells after 48 hrs by MTT assay; details: KB-C2, 48 h

SMILES	IC50 (KB) [µg/mL]	IC50 (K562 [1]) [µg/mL]	IC50 (MCF7) [µg/mL]	IC50 [2] [µg/mL]	IC50 (K562 [3]) [µg/mL]	IC50 [4] [µg/mL]
COC(=O)[C@@H](C)[C@@H]1CC[C@@H]2[C@]3(CC[C@]4(C)[C@@H]([C@H](C)CC/C=C(/C)C(=O)O)CC[C@@]24C)C[C@]13CCOC(C)=O [SINOCALYCANCHINENSIN F]	16.6 (≈ 31.3 µM)	19.5 (≈ 36.7 µM)	33.8 (≈ 63.7 µM)	17.5 (≈ 33 µM)	13.2 (≈ 24.9 µM)	21.7 (≈ 40.9 µM)
C=C[C@@H]1CC[C@@H]2[C@]3(CC[C@]4(C)[C@@H]([C@H](C)CC/C=C(/C)C(=O)O)CC[C@@]24C)C[C@]13CCC(=O)OC [SINOCALYCANCHINENSIN B]	20.9 (≈ 44.4 µM)	17.6 (≈ 37.4 µM)	35.7 (≈ 75.8 µM)	18.9 (≈ 40.2 µM)	16.5 (≈ 35.1 µM)	22.2 (≈ 47.2 µM)
COc1cccc2c1C(=O)c1c(O)c3c(c(O)c1C2=O)C[C@@](O)(C(C)=O)C[C@@H]3O[C@H]1C[C@H](N)[C@H](O)[C@H](C)O1 [DAUNORUBICIN]	0.45 (≈ 0.853 µM)	8.5 (≈ 16.1 µM)	0.033 (≈ 0.0626 µM)	11.6 (≈ 22 µM)	1.49 (≈ 2.82 µM)	7.9 (≈ 15 µM)
C=C[C@@H]1CC[C@@H]2[C@]3(CC[C@]4(C)[C@@H]([C@H](C)CC/C=C(/C)C(=O)O)CC[C@@]24C)C[C@]13CCC(=O)O [SINOCALYCANCHINENSIN A]	30.7 (≈ 67.2 µM)	38.9 (≈ 85.2 µM)	61.6 (≈ 135 µM)	33.4 (≈ 73.1 µM)	29.9 (≈ 65.5 µM)	30.4 (≈ 66.6 µM)
C=C[C@@H]1CC[C@@H]2[C@]3(CC[C@]4(C)[C@@H]([C@H](C)CC/C=C(/C)C(=O)O)CC[C@@]24C)C[C@]13CCC(=O)OC/C=C(\C)CCC[C@H](C)CCC[C@H](C)CCCC(C)C [SINOCALYCANCHINENSIN C]	> 100	–	> 100	> 100	> 100	> 100
C/C(=C\CC[C@@H](C)[C@H]1CC[C@@]2(C)[C@@H]3CC[C@H]4[C@H](C)C(=O)CC[C@@]45C[C@@]35CC[C@]12C)C(=O)O [SINOCALYCANCHINENSIN H]	18.6 (≈ 42.2 µM)	19.4 (≈ 44 µM)	18.6 (≈ 42.2 µM)	17.2 (≈ 39 µM)	14.8 (≈ 33.6 µM)	18.8 (≈ 42.7 µM)
C/C(=C/CC[C@@H](C)[C@H]1CC[C@@]2(C)[C@@H]3CC[C@H]4[C@H](C)C(=O)CC[C@@]45C[C@@]35CC[C@]12C)C(=O)O [SINOCALYCANCHINENSIN G]	19.9 (≈ 45.2 µM)	7.3 (≈ 16.6 µM)	23.7 (≈ 53.8 µM)	21.4 (≈ 48.6 µM)	14.8 (≈ 33.6 µM)	21.6 (≈ 49 µM)
C=C[C@@H]1CC[C@@H]2[C@]3(CC[C@]4(C)[C@@H]([C@H](C)[C@H]5CC=C(C)C(=O)O5)CC[C@@]24C)C[C@]13CCC(=O)OC [SINOCALYCANCHINENSIN E]	62.2 (≈ 133 µM)	20.5 (≈ 43.7 µM)	> 100	1.51 (≈ 3.22 µM)	22.4 (≈ 47.8 µM)	49.2 (≈ 105 µM)
C=C[C@@H]1CC[C@@H]2[C@]3(CC[C@]4(C)[C@@H]([C@H](C)[C@H]5CC=C(C)C(=O)O5)CC[C@@]24C)C[C@]13CCC(=O)O [SINOCALYCANCHINENSIN D]	31.7 (≈ 69.7 µM)	7 (≈ 15.4 µM)	39.2 (≈ 86.2 µM)	25.6 (≈ 56.3 µM)	16.7 (≈ 36.7 µM)	26.4 (≈ 58.1 µM)
